In ChEMBL document CHEMBL4602645, “Design, synthesis and evaluation of diosgenin carbamate derivatives as multitarget anti-Alzheimer's disease agents” (2020):
Activity calls are given as the source filed them. The rule behind the calls is not given here.

Key:
[1] = system: SH-SY5Y; test: Neuroprotective activity against H2O2-induced cytotoxicity in human SH-SY5Y cells assessed as cell viability at 1 mM pretreated for 2 hrs followed by H2O2 challenge and measured after MTT assay relative to control; type: functional; settings: read-out: Activity
[2] = system: SH-SY5Y; test: Neuroprotective activity against H2O2-induced cytotoxicity in human SH-SY5Y cells assessed as cell viability at 10 uM pretreated for 2 hrs followed by H2O2 challenge and measured after 24 hrs by MTT assay relative to control; type: functional; settings: read-out: Activity
[3] = system: RAW264.7; test: Antiinflammatory activity in mouse RAW264.7 cells assessed as inhibition of LPS-induced nitric oxide production at 10 uM preincubated for 2 hrs followed by LPS stimulation and measured after 24 hrs by Griess assay relative to control; type: functional
[4] = system: Astrocyte; test: Neuroprotective activity against amyloid-beta42-induced cell death in astrocytes isolated from cortex of Sprague-Dawley rat assessed as decrease in cell viability at 5 to 100 uM pretreated for 2 hrs followed by amyloid-beta42 stimulation measured after 24 hrs by MTT assay; type: functional, cell-based
[5] = system: RAW264.7; test: Antiinflammatory activity in mouse RAW264.7 cells assessed as decrease in LPS-induced IL-1beta expression by Western blot analysis; type: functional, cell-based
[6] = system: RAW264.7; test: Antiinflammatory activity in mouse RAW264.7 cells assessed as decrease in LPS-induced IL-6 expression by Western blot analysis; type: functional, cell-based
[7] = system: RAW264.7; test: Antiinflammatory activity in mouse RAW264.7 cells assessed as decrease in LPS-induced TNFalpha expression by Western blot analysis; type: functional, cell-based
[8] = system: SH-SY5Y; test: Neuroprotective activity against H2O2-induced toxicity in human SH-SY5Y cells assessed as decrease in cell viability at 0.1 to 100 uM pretreated for 2 hrs followed by H2O2 challenge and measured after 12 hrs by MTT assay; type: functional, cell-based
[9] = system: SH-SY5Y; test: Neuroprotective activity in human SH-SY5Y cells assessed as inhibition of H2O2-induced shortened nerve filaments at 1 to 50 uM pretreated for 2 hrs followed by H2O2 challenge and measured after 12 hrs by fluorescence microscopy analysis; type: functional, cell-based
[10] = system: SH-SY5Y; test: Neuroprotective activity in human SH-SY5Y cells assessed as inhibition of H2O2-induced decreased nerve filaments at 1 to 50 uM pretreated for 2 hrs followed by H2O2 challenge and measured after 12 hrs by fluorescence microscopy analysis; type: functional, cell-based
[11] = system: SH-SY5Y; test: Effect on mitochondrial membrane potential in human SH-SY5Y cells assessed as […] in H2O2-incuded mitochondrial membrane potential loss by measuring fluorescence shift at 5 to 50 uM pretreated for 2 hrs followed by H2O2 challenge measured after 12 hrs by fluorescence microscopy analysis; type: functional, cell-based
[12] = system: SH-SY5Y; test: Effect on mitochondrial ROS generation in human SH-SY5Y cells assessed as decrease in H2O2-induced mitochondrial ROS level by measuring fluorescence intensity at 5 to 50 uM incubated for 2 hrs by DCFDA probe based fluorescence microscopy analysis; type: functional, cell-based
[13] = system: Mus musculus; test: Neuroprotective activity in ICR mouse model of D-galactose-induced aging assessed as reduction in degeneration of neuron in hippocampal region at 6 to 30 mg/kg, ig QD measured after 8 weeks by hematoxylin-eosin staining based assay; type: functional, organism-based
[14] = system: Mus musculus; test: Improvement in learning and spatial memory in ICR mouse model of D-galactose-induced aging assessed as effect on time spent on quadrant at 6 to 30 mg/kg, ig QD measured after 8 weeks by Morris water maze test; type: functional, organism-based
[15] = system: Mus musculus; test: Neuroprotective activity in ICR mouse model of D-galactose-induced aging assessed as increase in number of […] cells at 6 to 30 mg/kg, ig QD measured after 8 weeks by hematoxylin-eosin staining based assay; type: functional, organism-based
[16] = system: Mus musculus; test: Antioxidant activity in ICR mouse model of D-galactose-induced aging assessed as increase in superoxide dismutase level in serum at 6 to 30 mg/kg, ig QD measured after 8 weeks; type: functional, organism-based

Compound | viability at 1000 µM [1] [%] | viability at 10 µM [2] [%] | inhibition at 10 µM [3] [%] | Activity [4] | Activity [5] | Activity [6] | Activity [7] | Activity [8] | Activity [9] | Activity [10] | Activity [11] | Activity [12] | Activity [13] | Activity [14] | Activity [15] | Activity [16]
CC(=O)N[C@@H](CS)C(=O)O [ACETYLCYSTEINE] | 37.1 | – | – | – | – | – | – | – | – | – | – | – | – | – | – | –
C[C@@H]1CC[C@@]2(OC1)O[C@H]1C[C@H]3[C@@H]4CC=C5C[C@@H](OC(=O)NCc6ccccc6)CC[C@]5(C)[C@H]4CC[C@]3(C)[C@H]1[C@@H]2C | – | 75.3 | 22.7 | Active | Dose-dependent effect | Dose-dependent effect | Dose-dependent effect | Active | Active | Active | Active | Active | Active | Active | Active | Active
